Results published in the supplement of paper PMC10307832.

What was measured:
Test in all cases: relative viability (nuclei count vs DMSO), 5 days (fraction); higher = more cells survive
[1] = system: NCI-H661
How it was run: (§1)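 Relative viability was taken as the ratio of nuclei in treated wells to nuclei in vehicle wells. Lung cancer cell lines in 1536-well plates received compounds by pin tool one day after seeding, either one drug alone or a fixed anchor-drug dose plus five library-drug doses (not always all listed) in √10 steps. Nuclei were counted on 4× images after 5 days of treatment, and values are medians of duplicate plates.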

[2] = system: NCI-H1651
How it was run: as §1

[3] = system: NCI-H650
How it was run: as §1

[4] = system: NCI-H596
How it was run: as §1

[5] = system: NCI-H460
How it was run: as §1

[6] = system: NCI-H727
How it was run: as §1

[7] = system: NCI-H520
How it was run: as §1

[8] = system: ABC-1
How it was run: as §1

[9] = system: NCI-H1915
How it was run: as §1

[10] = system: NCI-H1944
How it was run: as §1

[11] = system: A-427
How it was run: as §1

Work on CC(=O)O[C@@]12CO[C@@H]1C[C@H](O)[C@@]1(C)C(=O)[C@H](O)C3=C(C)[C@@H](OC(=O)[C@H](O)[C@@H](NC(=O)OC(C)(C)C)c4ccccc4)C[C@@](O)([C@@H](OC(=O)c4ccccc4)[C@H]21)C3(C)C [Docetaxel] + C[C@@H](Oc1cc(-c2cnn(C3CCNCC3)c2)cnc1N)c1c(Cl)ccc(F)c1Cl [Crizotinib] (partner 1 µM) yielded a relative viability ([1]; first compound 0.002 µM) of 0.914, a relative viability ([1]; first compound 0.006325 µM) of 0.68 and a relative viability ([1]; first compound 0.02 µM) of 0.503. It also gave a relative viability ([2]; first compound 0.0002 µM) of 0.835, a relative viability ([2]; first compound 0.000632 µM) of 0.876 and a relative viability ([2]; first compound 0.002 µM) of 0.612. For the same compound, the relative viability ([2]; first compound 0.006325 µM) was 0.168, the relative viability ([2]; first compound 0.02 µM) was 0.167 and the relative viability ([3]; first compound 0.0002 µM) was 0.504. For the same compound, the relative viability ([3]; first compound 0.000632 µM) was 0.356, the relative viability ([3]; first compound 0.002 µM) was 0.253 and the relative viability ([3]; first compound 0.006325 µM) was 0.208. The relative viability ([3]; first compound 0.02 µM) was 0.204, the relative viability ([4]; first compound 0.0002 µM) was 0.986 and the relative viability ([4]; first compound 0.000632 µM) was 0.798. For the same compound, the relative viability ([4]; first compound 0.002 µM) was 1.01, the relative viability ([4]; first compound 0.006325 µM) was 0.475 and the relative viability ([4]; first compound 0.02 µM) was 0.462. For the same compound, the relative viability ([5]; first compound 0.0002 µM) was 0.73, the relative viability ([5]; first compound 0.000632 µM) was 0.673 and the relative viability ([5]; first compound 0.002 µM) was 0.0086. It also gave a relative viability ([5]; first compound 0.006325 µM) of 0.0137, a relative viability ([5]; first compound 0.02 µM) of 0.0093 and a relative viability ([6]; first compound 0.0002 µM) of 0.862. It also gave a relative viability ([6]; first compound 0.000632 µM) of 0.815, a relative viability ([6]; first compound 0.002 µM) of 0.344 and a relative viability ([6]; first compound 0.006325 µM) of 0.298. For the same compound, the relative viability ([6]; first compound 0.02 µM) was 0.24, the relative viability ([7]; first compound 0.0002 µM) was 0.672 and the relative viability ([7]; first compound 0.000632 µM) was 0.784. The relative viability ([7]; first compound 0.002 µM) was 0.196, the relative viability ([7]; first compound 0.006325 µM) was 0.155 and the relative viability ([7]; first compound 0.02 µM) was 0.156. The relative viability ([8]; first compound 0.0002 µM) was 1.04, the relative viability ([8]; first compound 0.000632 µM) was 0.78 and the relative viability ([8]; first compound 0.002 µM) was 0.274. It also gave a relative viability ([8]; first compound 0.006325 µM) of 0.275, a relative viability ([8]; first compound 0.02 µM) of 0.242 and a relative viability ([9]; first compound 0.0002 µM) of 0.892. The relative viability ([9]; first compound 0.000632 µM) was 0.803, the relative viability ([9]; first compound 0.002 µM) was 0.325 and the relative viability ([9]; first compound 0.006325 µM) was 0.181. It also gave a relative viability ([9]; first compound 0.02 µM) of 0.141, a relative viability ([10]; first compound 0.0002 µM) of 1.13 and a relative viability ([10]; first compound 0.000632 µM) of 1.01. It also gave a relative viability ([10]; first compound 0.002 µM) of 0.956, a relative viability ([10]; first compound 0.006325 µM) of 0.192 and a relative viability ([10]; first compound 0.02 µM) of 0.137. The relative viability ([11]; first compound 0.0002 µM) was 0.998, the relative viability ([11]; first compound 0.000632 µM) was 0.859 and the relative viability ([11]; first compound 0.002 µM) was 0.506. For the same compound, the relative viability ([11]; first compound 0.006325 µM) was 0.221 and the relative viability ([11]; first compound 0.02 µM) was 0.167.
